According to patent US8853233B2, “Broad-spectrum anti-cancer treatment based on iminocamptothecin derivatives” (Sigma-Tau Industrie Farmaceutiche Riunite S.p.A., priority 2007, dated 2014):

Tests used:
Design in all cases: species or system nude athymic mice
[1] = tested on: KB squamous oral head and neck carcinoma xenograft; assay: In vivo antitumoral activity, KB tumor xenograft; details: q4d × 4
Description: (§1) Exponentially growing tumor cells were injected s.c. into nude athymic mice. The number of tumor cells was previously chosen by a growth curve. […] Animals were housed under a light-dark cycle, keeping temperature and humidity constant. Parameters of the animal rooms were assessed as follows: 22±2° C. temperature, 55±10% relative humidity, about 15-20 filtered air changes/hour and 12 hour circadian cycle of artificial light (7 a.m., 7 p.m.). At request, the environmental conditions were monitored and the data are retained in Animal Housing Archives. Drinking water was supplied ad libitum. Each mouse was offered daily a complete pellet diet (GLP 4RF21, Mucedola) throughout the study. The analytical certificates of animal food and water are retained at Sigma-Tau premises. All animals were weighed before starting the experiment and were subdivided into the different dosage groups. Each cage was identified by a paper tag indicating: cage number, group, date of tumor injection, starting date of treatment, name of the test item, dose and route of administration, date of sacrifice.
(§2) Tumor growth was followed by biweekly measurements of tumor diameters with a Vernier caliper. Tumor volume (TV, mm^3) was calculated as: [length (mm)×width (mm)^2]/2, where the width and the length are the shortest and the longest diameters of each tumor, respectively.
(§3) LTS (long term survivors) were considered mice without tumor 90 days upon the tumor injection.

[2] = tested on: A253 epidermoid submaxillary salivary gland carcinoma xenograft; assay: In vivo antitumoral activity, A253 tumor xenograft; details: q4d × 4
Description: as §1, §2
LTS (long term survivors) were considered mice without tumor 90 days upon the tumor injection. […]

[3] = tested on: FaDu squamous pharynx carcinoma xenograft; assay: In vivo antitumoral activity, FaDu tumor xenograft
Description: as §1, §2, §3

[4] = tested on: MiaPaCa2 pancreas ca. xenograft; assay: In vivo antitumoral activity, MiaPaCa2 tumor xenograft; details: q4d × 4
Description: as §1, §2, §3

[5] = tested on: 501Mel melanoma xenograft; assay: In vivo antitumoral activity, 501Mel tumor xenograft; details: 501Mel xenograft, q4d × 4
Description: as §1, §2, §3

[6] = tested on: HT1376 bladder ca. xenograft; assay: In vivo antitumoral activity, HT1376 tumor xenograft; details: q4d × 4
Description: as §1, §2, §3

[7] = tested on: MESO mesothelioma xenograft; assay: In vivo antitumoral activity, MESO tumor xenograft; details: q4d × 4
Description: as §1, §2, §3

[8] = tested on: A431 epidermoid skin ca. xenograft; assay: In vivo antitumoral activity, A431 tumor xenograft; details: q4d × 4
Description: as §1, §2, §3

## CC[C@@]1(O)C(=O)OCc2c1cc1n(c2=O)Cc2c-1nc1ccccc1c2/C=N\OCCN [ST1968, 7-(2-amino)ethoxyiminomethylcamptothecin]
[1]; 17.5 mg/kg i.v.
  CR (complete response): 4/8
  LCK (log10 cell kill): 3.79
  LTS (long term survivors): 4/8
  TVI % (tumor volume inhibition): 99%
[1]; 35 mg/kg i.v.
  CR (complete response): 7/7
  LCK (log10 cell kill): >>4.0
  LTS (long term survivors): 7/7
  TVI % (tumor volume inhibition): 100%
[2]; 15 mg/kg i.v.
  CR (complete response): 0/8
  LCK (log10 cell kill): 0.6
  LTS (long term survivors): 0/8
  TVI % (tumor volume inhibition): 84%
[2]; 30 mg/kg i.v.
  CR (complete response): 0/8
  LCK (log10 cell kill): 1.2
  LTS (long term survivors): 1/8
  TVI % (tumor volume inhibition): 90%
[2]; 35 mg/kg i.v.
  CR (complete response): 0/7
  LCK (log10 cell kill): 1.5
  LTS (long term survivors): 2/7
  TVI % (tumor volume inhibition): 96%
[3]; 15 mg/kg i.v., q4d × 4
  CR (complete response): 8/8
  LCK (log10 cell kill): >>3.9
  LTS (long term survivors): 8/8
  TVI % (tumor volume inhibition): 100%
[3]; 30 mg/kg i.v., q4d × 4
  CR (complete response): 8/8
  LCK (log10 cell kill): >>3.9
  LTS (long term survivors): 8/8
  TVI % (tumor volume inhibition): 100%
[3]; 35 mg/kg i.v., q4d × 4
  CR (complete response): 7/7
  LCK (log10 cell kill): >>3.9
  LTS (long term survivors): 7/7
  TVI % (tumor volume inhibition): 100%
[4]; 17.5 mg/kg i.v.
  CR (complete response): 0/7
  LCK (log10 cell kill): 1.23
  LTS (long term survivors): 0/7
  TVI % (tumor volume inhibition): 75%
[4]; 30 mg/kg i.v.
  CR (complete response): 0/8
  LCK (log10 cell kill): 1.67
  LTS (long term survivors): 0/8
  TVI % (tumor volume inhibition): 89%
[5]; 20 mg/kg i.v.
  CR (complete response): 0/6
  LCK (log10 cell kill): 1.0
  LTS (long term survivors): 0/6
  TVI % (tumor volume inhibition): 65%
[5]; 30 mg/kg i.v.
  CR (complete response): 0/10
  LCK (log10 cell kill): 1.4
  LTS (long term survivors): 0/10
  TVI % (tumor volume inhibition): 68%
[6]; 30 mg/kg i.v.
  CR (complete response): 1/12
  LCK (log10 cell kill): 0.5
  LTS (long term survivors): 0/12
  TVI % (tumor volume inhibition): 77%
[7]; 30 mg/kg i.v.
  CR (complete response): 2/12
  LCK (log10 cell kill): 1.4
  LTS (long term survivors): 0/12
  TVI % (tumor volume inhibition): 92%
[8]; 30 mg/kg i.v.
  CR (complete response): 12/12
  LCK (log10 cell kill): >>7.7
  LTS (long term survivors): 12/12
  TVI % (tumor volume inhibition): 100%

## N.N.[Cl][Pt][Cl] [cisplatin]
[3]; 4.7 mg/kg i.v., q7d × 3
  CR (complete response): 1/8
  LCK (log10 cell kill): 1.6
  LTS (long term survivors): 0/8
  TVI % (tumor volume inhibition): 93%
[3]; 7 mg/kg i.v., q7d × 3
  CR (complete response): 1/8
  LCK (log10 cell kill): 3.9
  LTS (long term survivors): 3/8
  TVI % (tumor volume inhibition): 99%

## CCc1c2c(nc3ccc(OC(=O)N4CCC(N5CCCCC5)CC4)cc13)-c1cc3c(c(=O)n1C2)COC(=O)[C@]3(O)CC [irinotecan, reference compound]
[1]; 30 mg/kg i.v.
  CR (complete response): 0/7
  LCK (log10 cell kill): 1.26
  LTS (long term survivors): 0/7
[1]; 60 mg/kg i.v.
  CR (complete response): 0/8
  LCK (log10 cell kill): 1.63
  LTS (long term survivors): 0/8
[2]; 30 mg/kg i.v.
  CR (complete response): 0/8
  LCK (log10 cell kill): 0.1
  LTS (long term survivors): 0/8
[2]; 60 mg/kg i.v.
  CR (complete response): 0/8
  LCK (log10 cell kill): 0.5
  LTS (long term survivors): 0/8
[3]; 30 mg/kg i.v., q4d × 4
  CR (complete response): 8/8
  LCK (log10 cell kill): >>3.9
  LTS (long term survivors): 8/8
[3]; 60 mg/kg i.v., q4d × 4
  CR (complete response): 8/8
  LCK (log10 cell kill): >>3.9
  LTS (long term survivors): 8/8
[4]; 60 mg/kg i.v.
  CR (complete response): 0/7
  LCK (log10 cell kill): 1.23
  LTS (long term survivors): 0/7
[5]; 50 mg/kg i.v.
  CR (complete response): 0/10
  LCK (log10 cell kill): 1.3
  LTS (long term survivors): 0/10
[6]; 50 mg/kg i.v.
  CR (complete response): 0/10
  LCK (log10 cell kill): 0.2
  LTS (long term survivors): 0/10
[7]; 50 mg/kg i.v.
  CR (complete response): 0/12
  LCK (log10 cell kill): 0.8
  LTS (long term survivors): 0/12
[8]; 50 mg/kg i.v.
  CR (complete response): 12/12
  LCK (log10 cell kill): 6.8
  LTS (long term survivors): 9/12
